Test results: patent US20140256639A1, “PEPTOID NEUTRALIZING AGENTS” (The Regents of the University of California, priority 2013, published 2014)

What was measured:
[1] = tested on: heparin activity; details: Rabenstein and Wang 2006; cited from earlier work
[2] = tested on: proteases; details: physiological conditions; cited from earlier work
[3] = Heparin affinity chromatography (HAC), NaCl gradient elution; assay type: binding; details: pH 7.2, 50 mM sodium phosphate, gradient 0 to 1 M NaCl over 60 min, 0.65 mL/min
Protocol: The relative affinities of the peptoids in Table 2 for heparin were determined by heparin affinity chromatography (“HAC”). Peptoid solutions, typically 0.2 mM, were eluted by gradient elution; mobile phase A consisted of pH 7.2, 50 mM sodium phosphate buffer and mobile phase B consisted of the same buffer but with 1 M NaCl added. The flow rate was 0.65 mL/min and the gradient began with 100% mobile phase A and 0% mobile phase B, and ended at 60 min with 0% mobile phase A and 100% B although most of the peptoid runs were complete within 30 min or less.

Row | Substance | stability / degradation by proteases [2] | other results
1 | Ac-SRGKAKVKAKVKDQTK-NH2 (not fully specified; printed as Ac-SRGKAKVKAKVKDQTK-NH2) [L-HIPAP] |  | neutralizing heparin activity [1]: equally effective
2 | Ac-SRGKAKVKAKVKDQTK-NH2 [D-HIPAP] | more stable than L-HIPAP | 
3 | Ac-SRGKAKVKAKVKDQTK-NH2 [L-HIPAP] | more susceptible to degradation by proteases | 
4 | H-[N(Orn)-N(All)-N(Spe)]3-NH2 [s9merAll] |  | HAC r.t. [3]: 20 ± 2.0 min
